Laboratory results from patent US9932637B2, “Genetic polymorphisms associated with cardiovascular disorders and drug response, methods of detection and uses thereof” (CELERA CORPORATION, priority 2003, dated 2018).
Where “and” joins values, the source holds several entries; their conditions need not be identical. Identical values can stand only once.

System: patients with prior myocardial infarction (CARE study)
Experiment: CARE aligned analysis (prospective and case/control design, white males): association of genotypes with pravastatin efficacy (Tables 13, 15)
Format: in vivo, human
Details: for Pravastatin vs placebo odds ratio, 0 rare alleles / Pravastatin vs placebo odds ratio, 1 rare allele / Pravastatin vs placebo odds ratio, 2 rare alleles / 2 rare alleles n/total (%), pravastatin patients: CARE, F MI/SD/NF MI; for Pravastatin Patients (%) / Pravastatin Patients n/total: WM
Procedure: The data presented in Table 8 based on an association of genotypes with pravastatin efficacy of the CARE samples were further analyzed and presented in Table 13. The further analysis was performed to align the data obtained from the analysis of the CARE samples, which was a prospective study, to the analysis of the WOSCOP samples, which was a case/control study. Table 13 also presents an analysis of the association of genotypes with pravastatin efficacy in the WOSCOPs samples. Relative to the analysis performed on the data presented in Table 8, there are two significant differences to determine if the SNP influenced pravastatin efficacy. Data obtained from the CARE samples were separated by study design into two groups, those in the prospective study design group and those in the case/control study design group. The original care study contained 16 protocol defined cardiovascular disease defined endpoints and 150 other phenotypes. […] The control groups used to compare the data were also divided into two groups, the “all possible” control group and the “cleaner” control group. […] Because the participants in the WOSCOPs trial were all white males, only data obtained from white males in the CARE study were analysed. Data from the “all possible” and “cleaner” controls were compared to data obtained from the cases in the prospective study design while only data from “cleaner” controls were compared to cases in the case/control study design. The data from the case/control cohorts were analysed using conditional logistic regression (as opposed to logistic regression used for the original anaylsis).
The anaylsis was refined as described for both Tables 13 and 14.

[1] = KLK14 hCV16044337, 0 Rare Alleles, CARE Case/Control, F&NF MI, All Possible controls
[2] = KLK14 hCV16044337, 0 Rare Alleles, CARE Case/Control, F&NF MI, Cleaner controls
[3] = KLK14 hCV16044337, 0 Rare Alleles, CARE Prospective, F&NF MI, All Possible controls
[4] = KLK14 hCV16044337, 0 Rare Alleles, CARE Prospective, F&NF MI, Cleaner controls
[5] = KLK14 hCV16044337, 1 Rare Allele, CARE Case/Control, F&NF MI, All Possible controls
[6] = KLK14 hCV16044337, 1 Rare Allele, CARE Case/Control, F&NF MI, Cleaner controls
[7] = KLK14 hCV16044337, 1 Rare Allele, CARE Prospective, F&NF MI, All Possible controls
[8] = KLK14 hCV16044337, 1 Rare Allele, CARE Prospective, F&NF MI, Cleaner controls
[9] = KLK14 hCV16044337, Case/Control
[10] = LPA hCV11225994, 0 Rare Alleles, CARE Case/Control, F&NF MI, Cleaner controls
[11] = LPA hCV11225994, 1 Rare Allele, CARE Case/Control, F&NF MI, Cleaner controls
[12] = MYH7 hCV25629396, 0 Rare Alleles, CARE Case/Control, F&NF MI, Cleaner controls
[13] = MYH7 hCV25629396, 0 Rare Alleles, CARE Prospective, F&NF MI, Cleaner controls
[14] = MYH7 hCV25629396, 1 Rare Allele, CARE Case/Control, F&NF MI, All Possible controls
[15] = MYH7 hCV25629396, 1 Rare Allele, CARE Case/Control, F&NF MI, Cleaner controls
[16] = MYH7 hCV25629396, 1 Rare Allele, CARE Prospective, F&NF MI, All Possible controls
[17] = MYH7 hCV25629396, 1 Rare Allele, CARE Prospective, F&NF MI, Cleaner controls
[18] = NOS3 hCV3219460, 0 Rare Alleles, CARE Case/Control, F&NF MI, All Possible controls
[19] = NOS3 hCV3219460, 0 Rare Alleles, CARE Case/Control, F&NF MI, Cleaner controls
[20] = NOS3 hCV3219460, 0 Rare Alleles, CARE Prospective, F&NF MI, All Possible controls
[21] = NOS3 hCV3219460, 0 Rare Alleles, CARE Prospective, F&NF MI, Cleaner controls
[22] = NOS3 hCV3219460, 1 Rare Allele, CARE Case/Control, F&NF MI, All Possible controls
[23] = NOS3 hCV3219460, 1 Rare Allele, CARE Case/Control, F&NF MI, Cleaner controls
[24] = NOS3 hCV3219460, 1 Rare Allele, CARE Prospective, F&NF MI, All Possible controls

## CC[C@H](C)C(=O)O[C@H]1C[C@H](O)C=C2C=C[C@H](C)[C@H](CC[C@@H](O)C[C@@H](O)CC(=O)O)[C@H]21 [pravastatin]
KDR hCV22271999, Case/Control
  Pravastatin vs placebo odds ratio, 0 rare alleles: 0.67 and 0.59
  Pravastatin vs placebo odds ratio, 1 rare allele: 1.69
  Pravastatin vs placebo odds ratio, 2 rare alleles: 0.38 and 0.31
KDR hCV22271999, Prospective
  2 rare alleles n/total (%), pravastatin patients: (9.1%)
  Pravastatin vs placebo odds ratio, 0 rare alleles: 0.61
  Pravastatin vs placebo odds ratio, 1 rare allele: 1.41
  Pravastatin vs placebo odds ratio, 2 rare alleles: 0.27
[1]
  Pravastatin Patients (%): (10.9%)
  Pravastatin Patients n/total: 60/548
[2]
  Pravastatin Patients (%): (16.4%)
  Pravastatin Patients n/total: 60/365
[3]
  Pravastatin Patients (%): (10.7%)
  Pravastatin Patients n/total: 60/560
[4]
  Pravastatin Patients (%): (16.0%)
  Pravastatin Patients n/total: 60/374
[5]
  Pravastatin Patients (%): (10.4%)
  Pravastatin Patients n/total: 57/547
[6]
  Pravastatin Patients (%): (14.3%)
  Pravastatin Patients n/total: 57/399
[7]
  Pravastatin Patients (%): (10.3%)
  Pravastatin Patients n/total: 57/556
[8]
  Pravastatin Patients (%): (14.1%)
  Pravastatin Patients n/total: 57/404
[9]
  Pravastatin vs placebo odds ratio, 0 rare alleles: 1.02 and 0.98
  Pravastatin vs placebo odds ratio, 1 rare allele: 0.85 and 0.74
  Pravastatin vs placebo odds ratio, 2 rare alleles: 0.23
KLK14 hCV16044337, Prospective
  Pravastatin vs placebo odds ratio, 0 rare alleles: 1.04 and 0.97
  Pravastatin vs placebo odds ratio, 1 rare allele: 0.86 and 0.73
  Pravastatin vs placebo odds ratio, 2 rare alleles: 0.22 and 0.23
[10]
  Pravastatin Patients (%): (14.0%)
  Pravastatin Patients n/total: 88/627
[11]
  Pravastatin Patients (%): (15.4%)
  Pravastatin Patients n/total: 29/188
LPA hCV11225994, CARE Case/Control, F&NF MI
  2 Rare Alleles (%), Pravastatin Patients: (41.2%)
MICA hCV25474101, Case/Control
  2 rare alleles n/total (%), pravastatin patients: (37.5%)
  Pravastatin vs placebo odds ratio, 0 rare alleles: 0.67
  Pravastatin vs placebo odds ratio, 1 rare allele: 0.72
  Pravastatin vs placebo odds ratio, 2 rare alleles: 6.64
MYH7 hCV25629396, 0 Rare Alleles, CARE Case/Control, F&NF MI, All Possible controls
  Pravastatin Patients (%): (10.0%)
[12]
  Pravastatin Patients (%): (14.5%)
  Pravastatin Patients n/total: 118/815
MYH7 hCV25629396, 0 Rare Alleles, CARE Prospective, F&NF MI, All Possible controls
  Pravastatin Patients (%): (9.8%)
[13]
  Pravastatin Patients (%): (14.2%)
  Pravastatin Patients n/total: 118/829
[14]
  Pravastatin Patients (%): (29.0%)
  Pravastatin Patients n/total: 9/31
[15]
  Pravastatin Patients (%): (40.9%)
  Pravastatin Patients n/total: 9/22
[16]
  Pravastatin Patients (%): (29.0%)
  Pravastatin Patients n/total: 9/31
[17]
  Pravastatin Patients (%): (40.9%)
  Pravastatin Patients n/total: 9/22
MYH7 hCV25629396, Case/Control
  Pravastatin vs placebo odds ratio, 0 rare alleles: 0.75 and 0.67
  Pravastatin vs placebo odds ratio, 1 rare allele: 12.05 and 11.70
MYH7 hCV25629396, Prospective
  Pravastatin vs placebo odds ratio, 0 rare alleles: 0.75 and 0.66
  Pravastatin vs placebo odds ratio, 1 rare allele: 13.41 and 14.00
[18]
  Pravastatin Patients (%): (10.0%)
  Pravastatin Patients n/total: 53/529
[19]
  Pravastatin Patients (%): (14.8%)
  Pravastatin Patients n/total: 53/359
[20]
  Pravastatin Patients (%): (9.8%)
  Pravastatin Patients n/total: 53/539
[21]
  Pravastatin Patients (%): (14.4%)
  Pravastatin Patients n/total: 53/368
[22]
  Pravastatin Patients (%): (12.3%)
  Pravastatin Patients n/total: 64/520
[23]
  Pravastatin Patients (%): (17.6%)
  Pravastatin Patients n/total: 64/363
[24]
  Pravastatin Patients (%): (12.1%)
  Pravastatin Patients n/total: 64/527
NOS3 hCV3219460, 1 Rare Allele, CARE Prospective, F&NF MI, Cleaner controls
  Pravastatin Patients (%): (17.5%)
